Reference: PMC8049054, “Systematic Assessment of Fragment Identification for Multitarget Drug Design” (Chemmedchem, 2021)
One block for each compound: values may come before it.

Columns and labels:
[1] = tested on: T1, soluble epoxide hydrolase (sEH); assay: Differential scanning fluorimetry (DSF) screen on sEH; assay type: binding; conditions: 50 µM reference compound, triplicates repeated 3 times
T1 construct: For the expression of sEH-H and sEH-Fl transformed E.coli BL21 (DE3) cells were grown in 5052; made in house; host or cells: E. coli BL21 (DE3)

[2] = molecular target: T2, 5‐lipoxygenase (5‐LOX) (Homo sapiens, UniProt P09917); assay: 5-LOX activity assay (HPLC detection of product formation); assay type: biochemical; conditions: mean±standard deviation of three independent experiments
T2 construct: made in house; host or cells: E. coli BL21 (DE3)
T2 sequence (P09917 1-674): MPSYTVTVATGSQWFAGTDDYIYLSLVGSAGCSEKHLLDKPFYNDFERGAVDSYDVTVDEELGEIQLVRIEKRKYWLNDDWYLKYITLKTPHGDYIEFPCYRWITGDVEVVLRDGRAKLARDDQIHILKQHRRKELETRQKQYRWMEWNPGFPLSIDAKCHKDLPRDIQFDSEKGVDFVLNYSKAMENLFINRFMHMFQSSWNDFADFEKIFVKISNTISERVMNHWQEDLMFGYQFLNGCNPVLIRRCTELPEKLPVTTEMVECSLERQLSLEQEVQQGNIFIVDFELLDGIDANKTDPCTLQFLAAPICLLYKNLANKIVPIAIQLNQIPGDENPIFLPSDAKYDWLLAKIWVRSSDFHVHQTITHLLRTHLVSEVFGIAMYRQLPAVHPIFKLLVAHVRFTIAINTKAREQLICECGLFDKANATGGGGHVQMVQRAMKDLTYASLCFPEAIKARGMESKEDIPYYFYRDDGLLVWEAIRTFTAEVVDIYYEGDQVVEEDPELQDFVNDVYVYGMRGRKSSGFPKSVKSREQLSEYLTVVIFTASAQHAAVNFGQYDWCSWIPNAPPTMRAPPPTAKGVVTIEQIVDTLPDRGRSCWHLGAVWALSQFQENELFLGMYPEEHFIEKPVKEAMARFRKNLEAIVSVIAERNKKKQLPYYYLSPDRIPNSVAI
Procedure: (§1) For hit validation, we employed secondary assays with orthogonal readouts to confirm fragment activities. Biochemical activity assays were chosen for the enzymes sEH, LTA4H, and 5‐LOX. […] RXRα and FXR modulation was assessed in cell‐based hybrid reporter gene assays. All ten compounds were tested at a single concentration of 500 μM in the sEH and LTA4H activity assays and with a concentration of 100 μM on 5‐LOX, RXRα, and FXR. Fragments showing an inhibition greater than 50 % (sEH‐H and LTA4H) or greater than 70 % (5‐LOX) as well as the hits determined in the DSF experiments were further characterized in full concentration‐response curves between 0.1 and 1000 μM. […] As alternative cell‐free assay we employed isothermal titration calorimetry (ITC) to determine binding affinity of the fragments towards the LBDs of both nuclear receptors. ITC was performed with a protein concentration of 50 μM and compound concentrations of 250 μM.
(§2) The 10 fragments showing dual activity in the DSF experiments were validated by functional assay screening with a fixed concentration of 500 µM in case of sEH-H and LTA4H, 100 µM in case of 5-LOX and 30 µM, 10 µM and 5 µM in case of FXR and […]
(§3) % (5-LOX) as well as the hits determined in the DSF experiments were further measured with concentrations between 1000 µM and 0.1 µM (sEH-H and LTA4H) and between 300 µM and 1 µM (5-LOX). The sEH and LTA4H activity assays were performed as triplicate and repeated 3 times. The 5-LOX activity assay was performed with one point per concentration and repeated 3 times Raw data was first analyzed in Microsoft Office Excel (2013), before IC50 curves were plotted and further analyzed using GraphPad Prism 7 and GraphPad Prism 8 for the shown graphs .
The eight approved drugs were measured in the orthogonal assay systems analogous to the fragments. […]
For the 5-LOX they […]
were measured as single point measurement in three different experiments with concentrations between 300 µM and 1 µM. For […]
Raw data was processed according to the fragments. […]

[3] = molecular target: T3, soluble epoxide hydrolase (sEH) (Homo sapiens, UniProt P34913); assay: sEH-H activity assay (fluorogenic substrate PHOME); assay type: biochemical; conditions: approved drug, 1-1000 µM
T3 construct: made in house; host or cells: E. coli BL21 (DE3)
T3 sequence (P34913 1-555): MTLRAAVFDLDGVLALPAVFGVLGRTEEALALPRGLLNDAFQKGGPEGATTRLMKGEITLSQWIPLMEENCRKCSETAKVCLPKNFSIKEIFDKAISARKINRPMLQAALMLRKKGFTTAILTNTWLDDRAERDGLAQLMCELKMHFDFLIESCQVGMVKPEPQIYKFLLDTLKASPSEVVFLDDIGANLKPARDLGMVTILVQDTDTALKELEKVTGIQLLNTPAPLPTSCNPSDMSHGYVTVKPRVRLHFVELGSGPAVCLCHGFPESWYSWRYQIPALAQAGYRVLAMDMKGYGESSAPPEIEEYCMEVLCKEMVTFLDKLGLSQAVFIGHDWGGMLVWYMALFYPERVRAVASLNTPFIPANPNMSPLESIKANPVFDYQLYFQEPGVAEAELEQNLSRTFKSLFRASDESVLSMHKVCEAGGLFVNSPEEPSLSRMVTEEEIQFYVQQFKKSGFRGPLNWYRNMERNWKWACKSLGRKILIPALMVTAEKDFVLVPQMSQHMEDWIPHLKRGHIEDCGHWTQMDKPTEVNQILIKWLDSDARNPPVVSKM
Procedure: as §1, §2, §3
The eight approved drugs were measured in the orthogonal assay systems analogous to the fragments. The approved drugs were […]
For the sEH-H and LTA4H, they were measured as triplicate in concentrations between 1000 µM and 1 µM and each measurement was repeated three times. For the 5-LOX they were measured as single point measurement in three different experiments with concentrations between 300 µM and 1 µM. For […]
Raw data was processed according to the fragments.
The sEH-H activity assay was performed adapted from Hahn et al.5 and Lukin et al.6. In short 1 µl of compound dilution in DMSO or pure DMSO (for the positive and negative control) was placed in a black 96-well plate (Thermo Scientific™ Nunc™ F96 MicroWell™ Black Polystyrene Plate) and then 89 µl of protein-mix or buffer mix (without protein as negative control) were added and the mixture was incubated for 30 min at room temperature. 10 µl of 0.6 mM 3-phenyl-cyano(6-methoxy-2-naphthalenyl)methylester-2-oxiraneacetic acid (PHOME) were added to every well. The Plate was measured every minute for 45 min. Final concentration per well was 3 nM sEH-Fl, 0.001 % Triton X-100, 25 mM Bis-tris, 0.1 mg/ml BSA, pH = 7.0, 1.6% DMSO […]

[4] = tested on: sEH, LTA4H, 5‐LOX, RXRα, FXR; assay: DSF primary screen, statement over all five proteins; assay type: binding; conditions: 500 μM
From the text: For the primary screen of this fragment library, we employed differential scanning fluorimetry (DSF, also known as thermal shift). DSF is generally applicable to a large panel of protein targets and provides a robust, low‐cost screening technology for fragment‐based approaches. ^[20] All five proteins of our interest are soluble and were recombinantly expressed in Escherichia coli. We performed an initial fragment screen on all five targets by DSF. The use of a uniform screening method for all targets ensured consistent data and provided the opportunity to identify false positive hits which interfered with the screening technology. The conditions of the DSF assay were optimized for the desired screening and validated with reference compounds (Table S1 in the Supporting Information). Compounds causing a positive thermal shift ΔT m≥1.0 °C were considered as active. […]
The measurements were performed using a iCycler iQ™ Single -Color Real Time PCR device with a heat rate of 1 °C per min, an excitation wavelength of 490 nm and an emission wavelength of 570 nm. The first derivation calculated by MyiQ Op tical Software 1.0 was analyzed using Microsoft Office Excel 2013 by comparing the maxima. […]

[5] = tested on: T4, RXRα; assay: Differential scanning fluorimetry (DSF) screen on RXRα; assay type: binding; conditions: 50 µM reference compound; measured once as triplicate; no melting curve with DMSO
T4 construct: MBP (N, cleaved yes); poly-N-tag, His8-tag, TEV site (N, cleaved yes); made in house; host or cells: E. coli T7-express with pGro7 (GroEL/ES)

[6] = molecular target: T2, 5‐lipoxygenase (5‐LOX); assay: Differential scanning fluorimetry (DSF) screen on 5-LOX; assay type: binding; conditions: 100 µM reference compound; measured once as triplicate
[7] = molecular target: T5, leukotriene A4 hydrolase (LTA4H) (Homo sapiens, UniProt P09960); assay: Differential scanning fluorimetry (DSF) screen on LTA4H; assay type: binding; conditions: 50 µM reference compound, triplicates repeated 3 times
T5 construct: made in house; host or cells: E. coli BL21 (DE3)
T5 sequence (P09960 1-611): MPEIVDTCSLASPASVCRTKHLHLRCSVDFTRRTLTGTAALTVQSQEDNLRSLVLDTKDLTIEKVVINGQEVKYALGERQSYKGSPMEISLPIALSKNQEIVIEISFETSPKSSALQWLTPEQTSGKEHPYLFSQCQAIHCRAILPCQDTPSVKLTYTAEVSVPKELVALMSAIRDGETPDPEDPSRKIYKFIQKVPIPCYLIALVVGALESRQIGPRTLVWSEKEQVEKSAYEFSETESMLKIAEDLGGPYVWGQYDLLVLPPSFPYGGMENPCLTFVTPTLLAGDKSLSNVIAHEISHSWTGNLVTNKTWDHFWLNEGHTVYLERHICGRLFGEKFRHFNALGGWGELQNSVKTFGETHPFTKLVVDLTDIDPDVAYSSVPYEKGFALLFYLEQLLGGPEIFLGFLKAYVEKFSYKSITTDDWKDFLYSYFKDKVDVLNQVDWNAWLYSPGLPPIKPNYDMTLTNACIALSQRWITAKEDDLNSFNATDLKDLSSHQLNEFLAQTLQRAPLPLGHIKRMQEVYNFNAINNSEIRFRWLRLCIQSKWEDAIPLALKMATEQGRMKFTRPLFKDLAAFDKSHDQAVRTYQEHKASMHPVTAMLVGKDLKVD

SMILES: O=C(Nc1ccc(I)cc1)NC1CCCCC1 [CIU]
- TM(ref) sEH-H [1]: 62.2 ± 0.4 °C
- ΔTM sEH-H ([1]; in °C): 5.6 ± 0.5

SMILES: O=C(NCc1cccnc1)c1ccc(O)cc1 [Compound 22]
- activity in the DSF screen [4]: no activity

SMILES: Cc1nc2ccccc2[nH]1 [Compound 24]
- activity in the DSF screen [4]: no activity

SMILES: CC1(C)CCC(C)(C)c2cc(C3(c4ccc(C(=O)O)cc4)OCCO3)ccc21 [SR11237]
- TM(ref) RXRα [5]: 59.0 ± 0.0 °C

SMILES: C[C@H](C#Cc1ccc(Cc2ccc(F)cc2)s1)N(O)C(N)=O [atreleuton]
- TM(ref) 5-LOX [6]: 63.7 ± 0.6 °C

Continued, values first:

- IC50 [2]: 3.2 µM
- activity towards sEH [3]: completely loosing activity
SMILES: CC(C)COCC(CN(Cc1ccccc1)c1ccccc1)N1CCCC1 (stereo not shown) [Compound 15, bepridil, reference compound]

- TM(ref) LTA4H [7]: 60.7 ± 0.9 °C
- ΔTM LTA4H ([7]; in °C): 5.9 ± 0.7
SMILES: CC(C)C[C@H](NC(=O)[C@@H](O)[C@H](N)Cc1ccccc1)C(=O)O [bestatin]
